We go through 91 compounds from a melting point compilation (Tetko et al.; mined from patent text by program, amines drawn as free bases though some values may be those of a salt).

Structures are written as SMILES.

In general, melting point refers to the temperature, or range, at which the solid turns liquid. `CC(=O)OC1CSC(Oc2cncc(C#N)c2)C(OC(C)=O)C1OC(C)=O` (stereo unspecified) had a melting point of 147 °C.

For `C=CC1CC2C3CCC4=CC(=O)CCC4=C3C(c3ccc(-c4ccc(OC)nc4)cc3)CC2(C)C1C(=O)C1CC1` (stereo unspecified), the melting point worked out at 197 °C.

Compound `CNC(=S)NN=C(CCCCl)c1ccccc1` gave a melting point of 94 to 96 °C.

`O=C(O)CCCCCCCn1nnc(-c2ccccc2)c1-c1ccccc1` displayed a melting point of 103 to 104 °C.

In turn, `O=C(Nc1nccs1)c1cn(CC2CCCCC2)c2cc(Cl)ccc12` yielded a melting point of 181 to 183 °C.

`C=CCOC(=O)COc1ccc(CO)cc1` displayed a melting point of 33.5 to 34.5 °C.

For the compound `COc1ccc(C(=O)NCCCSc2ccncc2)cc1`, the melting point was in the range of 121 to 122 °C.

Consider `CCCn1cc2c(C3C(=O)Nc4ccc(Br)cc43)nc(NCc3ccncc3)nc2n1` (stereo unspecified), for which the melting point is > 300 °C.

Regarding `Cn1nc(-c2cnc(N)nc2-c2ccc(Cl)c(Cl)c2)ccc1=O`, the melting point is 238 °C.

Consider `Cc1cc2c(c(C(C)(C)C)c1)OC(=O)C2Cl` (stereo unspecified), for which the melting point lay within 81 to 86 °C.

Consider `CCCc1n[nH]c(C(N)=O)c1N`, for which the melting point is 196 to 201 °C.

The compound `Clc1ncnc2ccccc12` yielded a melting point of 83 °C.

In the case of `CCC(CO)Nc1cc(C)nc(Oc2c(C)cc(Cl)cc2C)c1C(=O)OC` (stereo unspecified), the melting point lay within 122 to 124 °C.

In turn, `C#CCCc1cc2cc(C(=O)OC)ccc2o1` had a melting point of 57 to 58 °C.

The compound `Cc1cc(C)c(C)c(OC(C)(C)C(=O)O)c1` yielded a melting point of 91 to 94 °C.

The compound `CCN(CC)[C@@H]1C(=O)N(C)[C@H]1c1ccccc1` (relative stereo) returned a melting point of 70 to 71 °C.

`Cc1ccc(-c2c3ccccc3c(-c3ccc(C)cc3)c3cc(Cl)ccc23)cc1` showed a melting point of 202 to 204 °C.

`Cc1[nH]c2ccc(NS(C)(=O)=O)cc2c1C1=CCN(C)CC1` gave a melting point of 176 to 184 °C.

`CCOc1nc2ccccc2nc1N(CC)C(=O)N1CCN(c2cc(Cl)cc(Cl)c2)CC1` returned a melting point of 115 to 117 °C.

The compound `COC(=O)c1cncc(OCc2cccc(OCc3nc(-c4ccccc4)oc3C)c2)c1` came in with a melting point of 96 to 97 °C.

Take `COc1cc(/C=C2/C(C)=C(CC(=O)O)c3cc(F)ccc32)cc(OC)c1OC`: the melting point lay in the range of 149 to 152 °C.

Regarding `CC(C)(C=NO)C(O)(CCc1ccc(F)cc1)Cn1cncn1` (stereo unspecified), the melting point was 101 to 103 °C.

`COC(=O)c1cccc(OCc2c(Cl)cccc2Cl)c1` displayed a melting point of 96 to 98 °C.

Consider `Cc1ccc(S(=O)(=O)c2nc(C)c(Br)c(C)n2)cc1`, for which the melting point lay in the range of 157 to 158 °C.

Consider `CCNC(=O)c1ccc(N2CCNCC2)c(Cl)c1`, for which the melting point was in the range of 117 to 119 °C.

Take `CCCCC1=NC2(CCCC2)C(=O)N1Cc1ccc(-c2ccccc2S(=O)(=O)Nc2onc(C)c2C)c(CCCC)c1`: the melting point lay in the range of 58 to 61 °C.

Compound `CCCCCC(O)C=Cc1scnc1CCCCCCC(=O)O` (stereo unspecified) returned a melting point of 73 to 74 °C.

`CCc1cccc(C)c1CNc1cc(C(N)=O)cc2c1nc(C)n2C` displayed a melting point of 240 to 241 °C.

Consider `CCCc1nc2c(N)nc3ccccc3c2o1`, for which the melting point lay in the range of 159 to 160 °C.

In turn, `Clc1ccc(C2CCc3cc(Cl)ccc3O2)cc1` (stereo unspecified) registered a melting point of 99 to 100 °C.

Take `COc1ccc(-c2cc(COS(C)(=O)=O)c(=O)n(Cc3ccc(F)cc3)n2)cc1F`: the melting point lay within 125 to 133 °C.

Compound `O=C1N(CCCC2CC2)c2ccccc2C12COc1cc3c(cc12)OCO3` (stereo unspecified) returned a melting point of 111 to 113 °C.

With `CC(C)(C)[Si](C)(C)O[C@@H]1[C@H](O)C[C@]2(O[Si](C)(C)C(C)(C)C)C[C@H]1OC2=O`, the melting point lay within 107 to 108 °C.

`CCC(CC)Oc1nn(C)c(=O)c2c1ccn2-c1c(C)cc(C)cc1C` displayed a melting point of 87 to 88 °C.

On to `O=C(NC(Cc1ccc(OCc2ccccc2)cc1)C(=O)O)c1cn2ccc(-c3ccc(Cl)cc3)cc2n1` (stereo unspecified), for which the melting point was 248 to 249 °C.

`Cc1sc(-c2nccs2)c2c1C(=O)CC(C)(C)C2` registered a melting point of 98 to 100 °C.

In the case of `O=S(=O)(Nc1cccc(CCOCc2nc(-c3ccc(F)cc3)sc2Br)c1)C(F)(F)F`, the melting point lay in the range of 84 to 85 °C.

Regarding `CCOC(=O)NCC(=O)c1ccc(OCC(=O)NCCN2CCOCC2)cc1`, the melting point was 133 to 135 °C.

`NC(=O)c1ccc(OCCN(Cc2ccccc2)CC(O)c2ccc(OCc3ccccc3)c(OCc3ccccc3)c2)cc1` (stereo unspecified): the melting point lay within 110 to 111 °C.

For `CCc1nnc2c(O)nc3cc(OC)ccc3n12`, the melting point was > 250 °C.

Compound `O=C1CN(C(=O)C(Cl)Cl)N(Cc2ccc(Cl)c(Cl)c2)C(=O)N1` came in with a melting point of 196 °C.

On to `N#CCCn1nc2ccc(Cl)nn2c1=O`, for which the melting point was in the range of 166 to 168 °C.

`Cc1c(Cl)ccc(-n2c(-c3ccccc3)cc(=O)c(C)c2-c2ccccc2)c1Cl` showed a melting point of 237 to 238 °C.

For the compound `COc1c(F)cc2c(c1-c1ccc(C[C@H](NC(=O)c3c(Cl)cccc3Cl)C(=O)O)cc1)OCO2`, the melting point lay in the range of 198 to 199 °C.

Compound `Cc1ccncc1Cn1nnnc1-c1cccc(Cl)c1Cl` displayed a melting point of 154 to 156 °C.

`NC(=O)C1(c2ccc(Br)nc2)CCCC1` had a melting point of 211 to 212 °C.

`O=C1N(c2ccccc2Br)Cc2cnc(Nc3ccccc3)nc2N1c1ccc(CO)cc1` showed a melting point of 129 to 132 °C.

Turning to `COC(=O)CSc1ccc2ccc(Oc3c(Cl)cc(C(F)(F)F)cc3OC)cc2c1`, the melting point was determined as 115 °C.

As to `C=CCN(C#N)c1c(Cl)ccc2nsnc12`, the melting point fell in the range of 62 to 63 °C.

The compound `COC(=O)c1cccc2cc(-c3ccccc3)oc12` came in with a melting point of 45 to 47 °C.

`COC(=O)[C@H](C)NC(=O)c1cccc([N+](=O)[O-])c1N` yielded a melting point of 133 °C.

In turn, `O=C(Nc1ccc(-n2nc(C(F)(F)F)cc2C2CC2)c(F)c1)c1c(Cl)cncc1Cl` gave a melting point of 218 to 223 °C.

As to `CCOC(=O)c1cc(NC(=O)C(Cc2cscn2)NC(=O)OC(C)(C)C)c[nH]1` (stereo unspecified), the melting point is 217 to 220 °C.

Turning to `COCC(O)=C(N)C(=O)O`, the melting point fell in the range of 186 to 187 °C.

On to `CC(C)(C)NC(=O)C1C(C=C(Cl)Cl)C1(C)C` (stereo unspecified), for which the melting point is 108 to 109 °C.

With `COc1c(F)c(F)cc2c(=O)c(C(=O)O)cn(C3COC3)c12`, the melting point was in the range of 178 to 179 °C.

The compound `O=C(N1CC2CC(C1)c1ccccc12)C(F)(F)F` returned a melting point of 67 to 68 °C.

Compound `CC(C)(C)[Si](C)(C)O[Si](C)(C)C(C)(C)C` had a melting point of 94 to 95 °C.

In the case of `CS(=O)(=O)c1ccc(Oc2cc(OCc3ccccc3)c3[nH]c(C4=NCC(CCO)S4)cc3c2)cc1` (stereo unspecified), the melting point fell in the range of 97 to 98 °C.

`Cc1cc(-n2ccnc2)c2cccc(OCc3c(Cl)ccc(S(=O)(=O)N4CCC[C@H]4C(=O)N4CCN(c5ccccc5)CC4)c3Cl)c2n1` returned a melting point of 88 °C.

The compound `COc1ccc(C=Cc2ccc(CBr)cc2)cc1` yielded a melting point of 147 to 148 °C.

In turn, `CC(=O)c1cc2ccccc2cc1C(=O)O` registered a melting point of 145 °C.

`CN1C(=O)N(CCC(NS(=O)(=O)c2ccc(-c3ccc(Cl)cc3)cc2)C(=O)O)C(=O)C1(C)C` (stereo unspecified): the melting point came out at 43 °C.

The compound `CN1CCC(c2cccc3ccc(NC(=O)c4ccccc4)cc23)C1` (stereo unspecified) registered a melting point of 137 to 145 °C.

For `CCNC(=O)C(C)n1cc(C)c(-c2ccccc2)n1` (stereo unspecified), the melting point fell in the range of 78 to 79 °C.

In turn, `CCOc1ccccc1C=C1CCc2c1oc1ccc(C(=O)O)cc1c2=O` had a melting point of 300 to 302 °C.

Regarding `CCCCc1nc2c(N)nc3cc(-c4ccccc4)ccc3c2n1CCCS(C)(=O)=O`, the melting point lay in the range of 214 to 216 °C.

In turn, `CC1(c2ccccc2)CN(c2ccnc(N)c2)C(=O)O1` (stereo unspecified) showed a melting point of 140 to 141 °C.

In turn, `O=C1Nc2ccccc2OC1c1ccc(Cl)cc1` (stereo unspecified) returned a melting point of 180 to 182 °C.

Regarding `C=C(C)C(=O)Nc1cccc(OC(=O)NC(C)(C)CC(C)(C)C)c1`, the melting point is 118 to 120 °C.

`CCOP(=O)(CC(=O)N(CC)c1cn(-c2cccnc2)nc1Cl)OCC` yielded a melting point of 46 to 48 °C.

The compound `C[C@H](Cc1ccc2c(c1)cc(C(=O)O)n2CC1CC1)NC[C@H](O)c1cccc(Cl)c1` yielded a melting point of 207 to 209 °C.

Regarding `O=C(Nc1cccc2c(=O)cc(-c3nnn[nH]3)oc12)c1ccc2c(c1)CC(CCCc1ccccc1)O2` (stereo unspecified), the melting point fell in the range of 234 to 235 °C.

`CC(C)N(C)S(=O)(=O)NC(=O)c1ccc(F)c([N+](=O)[O-])c1`: the melting point lay within 164 to 165 °C.

In the case of `CN1CC(C#N)C(=O)c2cc3cc(F)c(F)cc3nc21` (stereo unspecified), the melting point came to 144 °C.

On to `OC(CCc1ccc(Br)cc1)Cn1ccnc1` (stereo unspecified), for which the melting point was in the range of 121 to 122 °C.

`COC(=O)c1ccccc1NS(=O)(=O)NC(C)C`: the melting point fell in the range of 106 to 108 °C.

In turn, `Nc1nc(=O)n(C(=S)Oc2ccccc2)cc1F` displayed a melting point of 113 to 116 °C.

In turn, `CC(=NNC(=N)N)c1cccc(OCc2ccc3ccccc3n2)c1` returned a melting point of 57 to 59 °C.

As to `CCOC(=N)C(O)c1ccccc1` (stereo unspecified), the melting point is 65 to 67 °C.

The compound `COC(=O)CCCCCCCCCCCCCCCO` had a melting point of 54.2 °C.

In turn, `CN(C)Cc1cc2ccc(C(=O)NNC(=O)CSCCOc3ccccc3)cc2o1` registered a melting point of 162 to 164 °C.

As to `Cc1cccc2c1oc1c(NC(=O)c3ccccn3)n(C)nc12`, the melting point lay within 167 to 168 °C.

`CCN(CC)C(=O)c1ccc(-c2ccc(-c3ccccc3)c(-c3ccc4c(c3)C(C)(C)CCC4(C)C)c2)cc1` had a melting point of 113 °C.

In turn, `OC1(COc2cccc3ccccc23)CCN(Cc2ccccc2)C1` (stereo unspecified) gave a melting point of 130 °C.

With `COC(=O)CCSCc1csc(NC(N)=NCC(F)(F)F)n1`, the melting point fell in the range of 96 to 98 °C.

For `CCOC(=O)CC1CCc2c(sc3c(Cl)cccc23)C1` (stereo unspecified), the melting point was 51 to 53 °C.

Turning to `CCOC(=O)N1CCC(=C2c3cc(C)ccc3CCn3ccnc32)CC1`, the melting point is 156 °C.

`O=S(=O)(NCCCCOc1ccc(-n2ccnc2)cc1)c1cccc2nonc12` came in with a melting point of 125 to 126 °C.

As for `Cc1nc2c(N)nc3ccccc3c2n1CCCNC(=O)N1CCOCC1`, the melting point was in the range of 226 to 228 °C.

`O=[N+]([O-])c1cc(I)cc(OCc2ccccc2)c1` yielded a melting point of 79 to 80 °C.
